Common to all, as to experiment: inhibition of tumour cell growth, NCI panel, 48 h
Test [1] has as its system HCT-15 colon.
The subject of test [2] is HS 578T breast.
In test [3] the test system is IGROV1 ovarian.
The test system of test [4] is KM12 colon.
In test [5] the test system is OVCAR-5 ovarian.
For test [6], the system named is PC-3 prostate.
For test [7], the system named is RPMI-8226 leukemia.
For test [8], the system named is SF-295 CNS.
Test [9] relates to SR leukemia.
Test [10] relates to T-47D breast.

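Exposure lasted 48 hours, with cells grown in 96-well plates and compounds tested at five concentrations. The concentration for 50% growth inhibition is given as GI50. TGI is the concentration that stops growth completely.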

Consider `CCc1ccccc1NC(=O)C(C#N)C1=C(Cl)C(=O)c2ccccc2C1=O` (stereo not given), for which the TGI in [1] was determined as 28.7 µM; in [2], 60.6 µM; in test [3], 32.8 µM; in test [4] it was 28.4 µM; in test [5], 35.2 µM; in test [6], 33 µM. The TGI was 77.9 µM in test [7], 52.6 µM in test [8], above 100 µM in test [9] and 52.4 µM in test [10].
Take `Oc1cc(N2CC2)c(O)cc1N1CC1`: the GI50 in test [1] is 0.727 µM; in test [2], 2.33 µM; in test [3] it was 0.794 µM; in test [4] it was 1.63 µM; in test [5], 1.88 µM; in [6] it was 1.85 µM. Besides, the GI50 is 1.53 µM in [7], 0.377 µM in test [8], 0.159 µM in [9] and 1.1 µM in [10]. For the same compound, the TGI was 10.4 µM in test [1]; above 22.9 µM in test [2]; 3.6 µM in [3]; 4.44 µM in [4]; 9.93 µM in [5]; 14.6 µM in test [6]. Moreover, the TGI in test [7] is 9.74 µM; in test [8], 5.32 µM; in test [9], 4.03 µM; in test [10], 6.48 µM.
In the case of `CCN1CCC(CC(=O)Nc2n[nH]c3nnc(-c4cccc(F)c4F)cc23)CC1`, the GI50 is above 25 µM in test [1]; above 19.9 µM in [2]; above 25 µM in [3]; above 25 µM in test [4]; above 25 µM in test [5]; above 25 µM in [6]. Moreover, the GI50 is above 25 µM in test [7], 18 µM in test [8], above 25 µM in [9] and above 25 µM in test [10]. Also, the TGI in [1], in test [2], in test [3], in [4], in test [5] and in test [6] was above 25 µM throughout. Moreover, the TGI in test [7], in test [8], in test [9] and in test [10] was above 25 µM in each case.
For `C/C(CCC(=O)O)=N/Nc1ccc([N+](=O)[O-])cc1`, the GI50 in test [1] is 3.35 µM; in test [2] it was above 100 µM; in test [3], above 100 µM; in test [4], 0.839 µM; in test [5], above 100 µM; in test [6] it was 11.5 µM. Also, the GI50 in [7] was 57.7 µM; in test [8], 2.36 µM; in test [9], 9.3 µM; in test [10], 3.66 µM. The TGI in [1], in test [2], in [3], in test [4], in [5] and in [6] was above 100 µM in each case. The TGI in test [7], in [8], in test [9] and in test [10] was above 100 µM each time.
In the case of `Cc1ccccc1C1=C(c2cn(C)c3ccccc23)C(=O)NC1=O`, the GI50 in [1] is 10.7 µM; in test [2], 10 µM; in test [3], above 25 µM; in [4], 10.8 µM; in test [5] it was above 23.6 µM; in [6] it was 9.74 µM. The GI50 is 20 µM in test [7], 14.7 µM in test [8], 7.78 µM in [9] and 17.8 µM in test [10]. Moreover, the TGI in [1], in [2], in test [3], in [4], in test [5] and in test [6] was above 25 µM each time. The TGI in test [7], in [8], in test [9] and in [10] was above 25 µM in each case.
As to `CN(C)C1CCN(Cc2ccc(NC(=O)c3cncc(C#Cc4cnc(N)c5ncccc45)c3)cc2C(F)(F)F)CC1`, the GI50 in test [1] was 5.08 µM; in [2] it was 3.84 µM; in test [3] it was 9.48 µM; in [4], 0.236 µM; in test [5], 8.21 µM; in [6], 7.42 µM. In addition, the GI50 in test [7] was 4.31 µM; in test [8], 8.88 µM; in [9], 2.05 µM; in [10], 11.6 µM. The TGI came to 13.7 µM in test [1]; 14.8 µM in [2]; 19.9 µM in test [3]; 6.88 µM in [4]; 15.6 µM in test [5]; 15.5 µM in test [6]. For the same compound, the TGI worked out at 17 µM in test [7], 17.3 µM in test [8], 50 µM in [9] and 43.8 µM in [10].
As for `C/C(=N\NC(=S)N1CCN(c2ccccn2)CC1)c1ccccn1`, the TGI in test [1] stood at 14.5 µM; in [2], 27.9 µM; in test [3], 15 µM; in test [4] it was 14.1 µM; in test [5], 13.4 µM; in test [6], 15.1 µM. For the same compound, the TGI worked out at 23.6 µM in test [7], 12.4 µM in [8], 2.06 µM in [9] and 7.37 µM in test [10]. Also, the GI50 was 1.28 µM in test [2]; 0.0219 µM in [4]; 0.159 µM in [5]; 0.0129 µM in test [8]; 0.0167 µM in test [9].
Turning to `O=C(c1ccccc1)C(Cl)C(Cl)c1ccccc1` (stereo not given), the GI50 was 2.12 µM in test [1]; 9.28 µM in test [2]; 3.45 µM in test [3]; 3.76 µM in [4]; 5.48 µM in test [5]; 5.29 µM in test [6]. For the same compound, the GI50 in [7] was 2.27 µM; in test [8], 12.9 µM; in test [9], 0.381 µM; in [10], 2.74 µM. Also, the TGI in [1] was 9.03 µM; in test [2], 45.3 µM; in [3] it was 11.4 µM; in test [4] it was 15.1 µM; in [5], 20.9 µM; in [6] it was 15.8 µM. The TGI turned out to be 7.08 µM in test [7], 26 µM in [8], 7.65 µM in test [9] and 11.3 µM in test [10].
Regarding `COc1cc(-c2cc3ncccc3c3nc(OCCN(C)C)c4cccnc4c23)cc(OC)c1OC`, the GI50 is 0.502 µM in test [1]; 1.5 µM in [2]; 0.466 µM in [3]; 1.14 µM in [4]; 1.34 µM in [5]; 0.731 µM in test [6]. Further, the GI50 in test [7] was 0.372 µM; in test [8], 0.533 µM; in test [9], 0.244 µM; in test [10], 0.769 µM. In addition, the TGI in test [1] was 23.4 µM; in test [2], 14.9 µM; in [3], 1.99 µM; in test [4], above 100 µM; in [5], 3.68 µM; in test [6], above 100 µM. The TGI in [7] was 2.79 µM; in [8], 2.39 µM; in test [9], 2.07 µM; in [10], 37 µM.
For `COC(=O)Oc1nn(C(=O)OC)c(=O)c2ccccc12`, the TGI in test [1], in [2], in test [3], in test [4], in test [5] and in test [6] was above 100 µM each time. For the same compound, the TGI in test [7], in test [8], in test [9] and in test [10] was above 100 µM in each case.
Turning to `CNC(=O)c1nn(C)c2c1C(C)(C)Cc1cnc(Nc3cccc(N4CCN(C)CC4)c3)nc1-2`, the GI50 in [1] is 0.186 µM; in [2] it was 0.204 µM; in [3], 0.166 µM; in test [4], 0.0514 µM; in [5] it was 0.372 µM; in [6], 0.189 µM. Moreover, the GI50 in test [7] was 0.192 µM; in test [8] it was 0.332 µM; in test [9], 0.286 µM; in test [10] it was 0.59 µM. Further, the TGI in test [1] is above 40.7 µM; in test [2] it was 2.46 µM; in test [3], 11.6 µM; in test [4], 3.43 µM; in test [5] it was above 100 µM; in [6], 7.24 µM. Further, the TGI in test [7] was determined as 1.06 µM; in [8], 6.84 µM; in [9] it was 7.88 µM; in [10], 22.6 µM.

Source of the values: PubChem BioAssay (NCI).
